Assay [1] concerns RAW267.7. Nature of the assay: Inhibition of nitric oxide production in LPS-activated macrophages (nitrite, Griess reaction). The assay is classed as cell-based, murine. As to conditions: Mus musculus, Macrophage; for IC50: read-out: IC50 Nitric Oxide. The procedure: (§1) The anti-inflammatory effects of rosehip and ligustilide, hydroxytyrosol, magnolol, and genistein were evaluated in activated macrophages by determining the inhibition of the synthesis of nitric oxide and/or proinflammatory prostaglandins (PG). PGE2 plays a critical role in the inflammation process, while nitric oxide (NO) is a hallmark of inflammation in various chronic inflammatory diseases including various forms of arthritis, gastro-intestinal diseases and metabolic syndrome.
(§2) Biologically standardized rosehip powder was obtained from Hyben Vital International, Langeland, Denmark, and dissolved in DMSO. Ligustilide and genistein was synthesized by DSM Nutritional Products. Hydroxytyrosol was from Cayman Chemicals or synthesized by DSM Nutritional Products. Magnolol was obtained from Apin Chemicals Ltd, UK. According to the suppliers' data sheet all products were >90% pure and obtained in powder form. […] The anti-inflammatory effects of compounds was tested in cellular assays using a murine macrophage indicator cell line, RAW267.7, which was purchased from American Type Culture Collection, (ATCC) and cultured in DMEM according to the protocol provided by ATCC. Cells (˜50'000/well) were seeded into flat-bottomed microtiter plates and cultured for one day. Cells were then starved in complete medium containing 0.25% fetal calf serum (FCS) (D-025). After overnight culture, medium was removed and replaced by 100 μL of D-025 containing the test compounds at twice the final concentration. Subsequently, 100 μL of D-025 containing 2 μg/ml lipopolysaccharide (LPS) was added (i.e. final LPS concentration of 1 μg/ml) and the cells were cultured for 24 hours. Substances were usually tested in a concentration range from 0.2 to 50 μM in two-fold dilution steps. In the case of rosehip extract, the concentration range was from 3-2000 μg/ml. Concentrations of nitrite which was generated from nitric oxide released by cells were determined by the Griess reaction (see e.g Imai et al. Biochem Biophys Res Comm, 197, 105 [1993]) using sodium nitrite as standard. Briefly, 50 μl of supernatant was mixed with Griess reagent 1 (25 μL) and Griess reagent 2 (25 μL), centrifuged and the optical density at 540 nm determined. PGE2 secreted into the cell culture medium was determined by EIA obtained from Cayman Chemicals (Ann Harbor, Wis., USA) and used according to the manufacturer's instructions. IC50 values were calculated using a […] least-square fitting equation [y=A+((B−A)/(1+((C−x)̂D))] for best-fit curves (Excel fit software program).

The test system of assay [2] is RAW267.7. Nature of the assay: Inhibition of PGE2 production in LPS-activated macrophages (EIA). In kind it is cell-based, murine. Particulars: Mus musculus, Macrophage; for IC50: read-out: IC50 PGE2. On the procedure: as §1, §2
Where [3] appears, read: single substance, LPS 1 μg/ml, 24 hours.
The mark [4] stands for this setting: 6.25 μmol/L, read-out: % inhibition of NO production.

With `O=c1c(-c2ccc(O)cc2)coc2cc(O)cc(O)c12` [Genistein, 4′,5,7-trihydroxyisoflavone], in the assay with RAW267.7 [1] (25 μmol/L, read-out: % inhibition of NO production), the inhibition at 25 µM is 24%. Further, the IC50 with RAW267.7 [1] (setting [3]) came out at 37 ± 2 µM; with RAW267.7 [2] (setting [3]), 5 ± 1 µM.
As to `CCC/C=C1\OC(=O)C2=C1CCC=C2` [Ligustilide, ligustilide], the inhibition at 6.25 µM in the assay with RAW267.7 [1] (setting [4]) came to 5%. Also, the IC50 with RAW267.7 [1] (setting [3]) is 15 ± 1 µM; with RAW267.7 [2] (setting [3]), 10 ± 2 µM.
Consider `C=CCc1ccc(O)c(-c2cc(CC=C)ccc2O)c1` [Magnolol, 5,5′-Diallyl-2,2′-biphenyldiol], for which the IC50 with RAW267.7 [1] (24 h) was found to be 10 ± 2 µM; in the assay with RAW267.7 [2] (24 h) it was 2 ± 1 µM. Further, the inhibition at 6.25 µM in the assay with RAW267.7 [1] (read-out: % inhibition of NO production) stood at 2%; in the assay on RAW267.7 [2] (read-out: % inhibition of PGE2 production), 57%.
Regarding `OCCc1ccc(O)c(O)c1` [OH-Tyrosol, 3,4 dihydroxyphenylethanol], the inhibition at 6.25 µM in the assay on RAW267.7 [1] (setting [4]) was -5%. Moreover, the inhibition at 12.5 µM in the assay with RAW267.7 [1] (12.5 μmol/L, read-out: % inhibition of NO production) is 9%. Besides, the IC50 in the assay with RAW267.7 [1] (setting [3]) came out at 28 ± 2 µM; with RAW267.7 [2] (setting [3]), 24 ± 3 µM.

(Values after patent publication US20100055218A1, “NOVEL COMPOSITIONS” (priority 2006, published 2010).)
